According to patent US11040984B2, “Quinazoline compound for EGFR inhibition” (MEDSHINE DISCOVERY INC., priority 2016, dated 2021):
Counter-ions that a name gives are not always drawn.

Columns and labels:
[1] = biological target: EGFR [d746-750] (Homo sapiens (Human), UniProt P00533, DEL746-750); assay: Kinase assay (HTRF KinEASE TK), EGFR exon 19 deletion enzyme; format: biochemical
Source text: (§1) Detection of inhibitory effects of compounds on enzymatic activities of EGFR WT, EGFR [L858R] and EGFR [d746-750]
(§2) EGFR WT (Invitrogen, Cat. No PR7295B), EGFR [L858R] (Invitrogen, Cat. No PR7447A), EGFR [d746-750](Invitrogen, Cat. No PV6179), ATP (Sigma, Cat. No. A7699-1G), DMSO (Sigma, Cat. No. D2650), DTT (Sigma, Cat. No. 43815), 384-well plates compound dilution plates (Greiner, Cat. No. 781280), 384-well plates_test plates (Perkin Elmer, Cat. No. 6007299), HTRF KinEASE TK Kit (Cisbio, Cat. No. 62TKOPEB), MgCl2 (Sigma, Cat. No. M1028), Orthovanadate (Sigma, Cat. No. S6508), BSA (Sigma, Cat. No. A7030), HEPES (Life technology, Cat. No. 11344-041)
(§3) The final test concentrations of the test compounds ranged from 10 μM to 0.17 nM, with serial 3-fold dilutions and 11 gradient concentrations.
(§4) Buffer formulation: a buffer consisted of 50 mM HEPES (pH 7.5), 0.01% BSA, 5 mM MgCl2, 0.1 mM Orthovanadate. After the buffer was formulated, an enzyme and a substrate were mixed with pre-diluted compounds of varying concentrations, and placed at room temperature for 15 minutes. The reaction was initiated by adding ATP and incubated at room temperature for 60 minutes (wherein negative and positive controls were set up). The 10 μL reaction system consisted of a 2.5 μL compound, a 5 μL mixture of enzyme and substrate, and 2.5 μL ATP. After the reaction was complete, antibodies were added to test, the detection was performed with Evnvision after incubation at room temperature for 60 minutes, and data were collected. Data analysis and simulation were performed using XLfit5 software.

[2] = biological target: EGFR [L858R] (Homo sapiens (Human), UniProt P00533, L858R); assay: Kinase assay (HTRF KinEASE TK), EGFR L858R enzyme; format: biochemical
Source text: as §1, §2, §3, §4

[3] = tested on: PC-9 (Δ19del) cells; assay: Anti-PC-9 cell proliferation (Cell-Titer Glo, 72 hours); format: cell-based; conditions: Homo sapiens, PC-9 cells, read-out: Anti-PC-9 (Δ19del) cell proliferative activity IC50
Experimental: RPMI 1640 medium, FBS fetal bovine serum and trypsin-EDTA were purchased from Giboco. DPBS was purchased from Corning, penicillin/streptomycin solution from Hyclone, Cell-Titer Glo reagent from Promega (1 kit, Cat. No. G7571). PC-9 was built by WuXi itself. Plate reader: Envision (Perkin Elmer).
(§5) 45 μL Culture media was added to columns 1, 2, 24 of a 384-well plate, repectively. The cell suspension was separated by Multi-drop, 45 μL (1000 cells) per well, which was placed and cultured in an incubator overnight. A compound was added to the source plate according to the requirement of Echo liquid-separation. The compound in the source plate was added to the interplate and diluted to an intermediate concentration, then the compound in the source plate and the interplate was added to the cell plate, and the cells were further cultured in the incubator for 72 hours. After 72 hours, Cell-Titer Glo reagent and cells were taken out and equilibrated at room temperature for 30 minutes. 25 μL Cell-Titer Glo reagent was separated into the cells in 384-well plate by Multi-drop, shaken at medium speed for 3 minutes, centrifuged at 1000 rpm for 2 minutes, and kept for 10 minutes. Envision was used to read the plate (Luminescence).

[4] = biological target: EGFR WT (Homo sapiens (Human), UniProt P00533); assay: Kinase assay (HTRF KinEASE TK), wild-type EGFR enzyme; format: biochemical
Source text: as §1, §2, §3, §4

[5] = tested on: A431 cells; assay: Anti-A431 cell proliferation; format: cell-based; conditions: Homo sapiens, A-431, read-out: Anti-A431 cell proliferative activity IC50
Experimental: as §5

EGFR [L858R], sequence (P00533 25-1210 L858R): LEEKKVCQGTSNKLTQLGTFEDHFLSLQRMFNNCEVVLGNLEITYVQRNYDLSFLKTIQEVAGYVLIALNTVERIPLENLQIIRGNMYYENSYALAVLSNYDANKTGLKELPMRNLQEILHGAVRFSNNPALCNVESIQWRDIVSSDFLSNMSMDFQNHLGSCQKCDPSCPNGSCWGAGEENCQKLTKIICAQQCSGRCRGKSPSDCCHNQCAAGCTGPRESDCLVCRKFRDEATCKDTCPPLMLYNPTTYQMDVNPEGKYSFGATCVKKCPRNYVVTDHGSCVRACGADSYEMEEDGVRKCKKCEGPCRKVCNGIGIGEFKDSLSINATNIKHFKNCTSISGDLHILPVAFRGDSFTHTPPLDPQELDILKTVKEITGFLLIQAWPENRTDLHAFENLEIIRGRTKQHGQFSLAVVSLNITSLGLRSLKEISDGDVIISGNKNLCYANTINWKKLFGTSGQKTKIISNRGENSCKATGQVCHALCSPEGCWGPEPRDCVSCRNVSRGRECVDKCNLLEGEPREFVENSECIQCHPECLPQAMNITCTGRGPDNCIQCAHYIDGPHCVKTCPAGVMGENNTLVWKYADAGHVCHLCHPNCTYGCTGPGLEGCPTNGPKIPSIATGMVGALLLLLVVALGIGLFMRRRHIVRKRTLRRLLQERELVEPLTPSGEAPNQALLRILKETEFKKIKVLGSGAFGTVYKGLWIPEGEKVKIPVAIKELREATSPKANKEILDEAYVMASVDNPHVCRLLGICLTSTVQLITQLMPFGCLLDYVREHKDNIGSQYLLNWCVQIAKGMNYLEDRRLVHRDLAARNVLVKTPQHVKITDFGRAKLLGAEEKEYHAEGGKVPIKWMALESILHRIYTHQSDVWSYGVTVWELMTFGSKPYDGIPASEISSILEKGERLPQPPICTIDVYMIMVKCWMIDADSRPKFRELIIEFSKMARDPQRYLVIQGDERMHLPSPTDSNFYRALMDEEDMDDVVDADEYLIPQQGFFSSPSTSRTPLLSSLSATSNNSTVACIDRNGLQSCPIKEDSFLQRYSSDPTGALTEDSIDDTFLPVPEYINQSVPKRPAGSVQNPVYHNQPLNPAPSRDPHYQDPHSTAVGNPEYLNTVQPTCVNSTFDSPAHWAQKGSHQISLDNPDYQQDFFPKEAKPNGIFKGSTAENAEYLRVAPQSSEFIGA
EGFR WT, sequence (P00533 25-1210): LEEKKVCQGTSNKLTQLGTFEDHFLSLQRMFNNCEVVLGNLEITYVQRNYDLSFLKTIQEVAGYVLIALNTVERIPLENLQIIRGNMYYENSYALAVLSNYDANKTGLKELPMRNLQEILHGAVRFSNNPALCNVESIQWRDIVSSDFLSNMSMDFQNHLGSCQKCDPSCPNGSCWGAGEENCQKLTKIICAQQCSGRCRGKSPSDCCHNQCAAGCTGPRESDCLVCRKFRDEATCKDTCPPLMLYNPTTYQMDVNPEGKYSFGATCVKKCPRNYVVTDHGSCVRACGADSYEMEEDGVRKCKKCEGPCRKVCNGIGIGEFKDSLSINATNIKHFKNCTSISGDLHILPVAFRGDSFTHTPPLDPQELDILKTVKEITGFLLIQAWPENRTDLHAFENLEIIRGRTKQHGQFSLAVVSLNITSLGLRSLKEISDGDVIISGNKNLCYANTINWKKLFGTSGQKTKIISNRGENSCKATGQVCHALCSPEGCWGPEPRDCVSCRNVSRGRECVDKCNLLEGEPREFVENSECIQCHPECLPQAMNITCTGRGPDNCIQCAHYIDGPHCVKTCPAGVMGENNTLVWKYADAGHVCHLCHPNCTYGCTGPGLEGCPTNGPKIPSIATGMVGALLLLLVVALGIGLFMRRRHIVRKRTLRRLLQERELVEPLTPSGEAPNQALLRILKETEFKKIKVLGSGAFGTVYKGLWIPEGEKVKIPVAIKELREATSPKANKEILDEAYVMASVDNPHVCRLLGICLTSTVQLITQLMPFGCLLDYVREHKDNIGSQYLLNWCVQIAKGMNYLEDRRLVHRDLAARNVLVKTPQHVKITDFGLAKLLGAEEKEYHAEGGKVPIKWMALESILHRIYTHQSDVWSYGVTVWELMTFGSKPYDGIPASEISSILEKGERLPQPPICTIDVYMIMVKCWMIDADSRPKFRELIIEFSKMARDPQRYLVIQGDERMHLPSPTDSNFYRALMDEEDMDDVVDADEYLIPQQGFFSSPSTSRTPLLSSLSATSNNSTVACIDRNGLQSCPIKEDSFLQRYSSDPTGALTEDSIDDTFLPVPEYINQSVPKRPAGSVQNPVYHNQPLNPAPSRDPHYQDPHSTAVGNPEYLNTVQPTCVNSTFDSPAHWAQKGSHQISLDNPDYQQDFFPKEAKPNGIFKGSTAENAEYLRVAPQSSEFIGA
EGFR [d746-750], sequence (P00533 other isoform, or with tags, fused parts or gaps del 1-667/del 746-750 limits assumed): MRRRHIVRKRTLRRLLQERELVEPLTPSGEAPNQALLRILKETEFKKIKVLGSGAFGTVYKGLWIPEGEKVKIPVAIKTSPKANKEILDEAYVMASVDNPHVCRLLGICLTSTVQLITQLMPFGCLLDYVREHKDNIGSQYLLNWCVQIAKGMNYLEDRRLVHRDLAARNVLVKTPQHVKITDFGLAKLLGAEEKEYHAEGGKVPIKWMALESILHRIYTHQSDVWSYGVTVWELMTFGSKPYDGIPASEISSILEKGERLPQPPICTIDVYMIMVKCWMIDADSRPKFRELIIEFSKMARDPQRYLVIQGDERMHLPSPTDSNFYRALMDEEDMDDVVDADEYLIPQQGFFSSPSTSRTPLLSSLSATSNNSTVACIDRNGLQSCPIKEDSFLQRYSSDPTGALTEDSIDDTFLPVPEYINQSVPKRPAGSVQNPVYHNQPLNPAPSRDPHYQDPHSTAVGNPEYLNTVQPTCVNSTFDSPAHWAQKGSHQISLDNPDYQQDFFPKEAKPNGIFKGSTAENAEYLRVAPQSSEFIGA

Structure (SMILES)	IC50 [1] [nM]	IC50 [2] [nM]	IC50 [3] [nM]	IC50 [4] [nM]	IC50 [5] [nM]
COc1cc2ncnc(Nc3ccc(F)c(Cl)c3)c2cc1N1CC2(CCN(C)CC2)OC1=O [Formate of compound 2]	16.5	48.1	165	–	–
COc1cc2ncnc(Nc3ccc(Cl)cc3F)c2cc1N1CC2(CN(C)C2)OC1=O [Formate of compound 46]	–	–	29.8	–	–
COc1cc2ncnc(Nc3ccc(F)c(Cl)c3F)c2cc1N1CC2(CN(C)C2)OC1=O [Compound 49]	–	–	4.2	–	–
COc1cc2ncnc(Oc3cccc(Cl)c3)c2cc1N1CC2(CN(C)C2)OC1=O [Compound 27]	–	–	84	–	–
COc1cc2ncnc(-n3ccc4c(Cl)cccc43)c2cc1N1CC2(CCN(C)CC2)OC1=O [Formate of compound 19]	–	–	1280	–	–
COc1cc2ncnc(Nc3cccc(Cl)c3F)c2cc1N1CC2(CCN(C)CC2C)OC1=O (stereo not shown) [Formate of compound 20]	–	–	2.17	–	–
CC(C)N1CC2(CN(c3ccc4ncnc(Nc5cccc(Cl)c5F)c4c3)C(=O)O2)C1 [Formate of compound 33]	0.29	–	–	0.114	–
COc1cc2ncnc(Nc3ccc(Cl)c(Cl)c3F)c2cc1N1CC2(CCN(C)CC2)OC1=O [Formate of compound 6]	0.07	–	4.9	< 0.015	–
COc1cc2ncnc(Nc3cccc(Cl)c3F)c2cc1N1CC2(CN(C(C)C)C2)OC1=O [Compound 26]	–	–	7.2	–	98
COc1cc2ncnc(Nc3cccc(Cl)c3F)c2cc1N1CC2(COC2)OC1=O [Formate of compound 15]	–	–	23	–	–
COc1cc2ncnc(Nc3cccc(Cl)c3F)c2cc1N1CC2(CN(C3CC3)C2)OC1=O [Hydrochloride of compound 31]	–	–	15.3	–	–
COc1cc2ncnc(Nc3cccc(Cl)c3F)c2cc1N1CC2(CCN(C)CC2)OC1=O [Formate of compound 3]	0.02	0.1	3	–	96
COc1cc2ncnc(Nc3cccc(Cl)c3F)c2cc1N1CC2(CN(C)C2)OC1=O [Formate of compound 13]	0.052	–	5.34	0.016	–
COc1cc2ncnc(Oc3cccc(Cl)c3)c2cc1N1CC2(CCN(C)CC2)OC1=O [Compound 16]	–	–	540	–	–
COc1cc2ncnc(Nc3cccc(Cl)c3F)c2cc1N1C[C@H](CN(C)C)OC1=O [Compound 18]	0.05	–	12.5	< 0.015	59
COc1cc2ncnc(Nc3c(F)ccc(Cl)c3F)c2cc1N1CC2(CCN(C)CC2)OC1=O [Formate of compound 24]	–	–	7.53	–	–
COC[C@@H]1CN(c2cc3c(Nc4cccc(Cl)c4F)ncnc3cc2OC)C(=O)O1 [Compound 23]	0.17	–	24	0.038	–
CCN1CC2(C1)CN(c1cc3c(Nc4cccc(Cl)c4F)ncnc3cc1OC)C(=O)O2 [Compound 25]	0.069	–	6.76	0.022	64
COc1cc2ncnc(Nc3cccc(C)c3F)c2cc1N1CC2(CN(C)C2)OC1=O [Formate of compound 48]	–	–	8.55	–	–
COc1cc2ncnc(-c3cn(C)c4ccccc34)c2cc1N1CC2(CN(C)C2)OC1=O [Formate of compound 28]	–	–	250	–	–
COc1cc2ncnc(Nc3cccc(Cl)c3F)c2cc1N1CC2(CN(CCF)C2)OC1=O [Compound 29]	–	–	14.7	–	–
CN1CC2(C1)CN(c1cc3c(Nc4cccc(Cl)c4F)ncnc3cc1OC(F)F)C(=O)O2 [Compound 45]	–	–	8.86	–	–
CCCN1CC2(C1)CN(c1cc3c(Nc4cccc(Cl)c4F)ncnc3cc1OC)C(=O)O2 [Hydrochloride of compound 30]	0.052	–	11.2	0.021	71
COc1cc2ncnc(Nc3cccc(Cl)c3F)c2cc1N1C(=O)OC2CN(C)CCC21 (stereo not shown) [Formate of compound 17]	–	–	29.4	–	–
COc1cc2ncnc(Nc3cccc(Cl)c3F)c2cc1N1CC2(CCN(C(C)C)CC2)OC1=O [Formate of compound 5]	–	–	2.73	–	–
CN1CCC2(CC1)CN(c1ccc3ncnc(Nc4cccc(Cl)c4F)c3c1)C(=O)O2 [Formate of compound 12]	0.085	–	9.11	0.017	46
CCC1CN(C)CCC12CN(c1cc3c(Nc4cccc(Cl)c4F)ncnc3cc1OC)C(=O)O2 (stereo not shown) [Formate of compound 21]	–	–	2.96	–	–
COc1cc2ncnc(Nc3ccc(F)c(Cl)c3F)c2cc1N1CC2(CCN(C)CC2)CC1=O [Formate of compound 10]	–	–	6.01	–	73
Cc1cc2ncnc(Nc3cccc(Cl)c3F)c2cc1N1CC2(CCN(C)CC2)OC1=O [Formate of compound 22]	–	–	41.4	–	–
COc1cc2ncnc(Nc3cccc(Cl)c3OC)c2cc1N1CC2(CCN(C)CC2)OC1=O [Formate of compound 4]	55.4	30.1	396	–	–
